Data from patent publication US9012443B2 (Amgen Inc., priority 2011, dated 2015).

Tests used:
Nav 1.7 [1] = target: T1, Nav 1.7 (Homo sapiens (Human), UniProt Q15858); experiment: Nav 1.7 IWQ in vitro assay (IonWorks Quattro population patch-clamp); type: cell-based; conditions: for IC50: 293 cells stably transfected with Nav 1.7; for inhibition at […]: read-out: Nav 1.7 IWQ percent inhibition at […], read-out: Nav 1.7 IWQ percent inhibition at 4.9 μM
In short: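 Percent block, measured in duplicate, came from peak minus end-of-pulse current on the 26th −20 mV step, and IC50 was fitted against concentration. Stably transfected 293 cells were recorded in population patch-clamp mode before and after a single test concentration, which was added over 3–8 min while cells were unclamped.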

Nav 1.7 [2] = target: T1, Nav 1.7; experiment: Nav 1.7 in vitro PX assay (PatchXpress whole cell voltage clamp); type: cell-based; conditions: 293 cells, human Nav1.7, partially inactivated state; read-out: Nav1.7 PX IC50 IP
In short: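 Partially inactivated channel state (holding potential for 20–50% inactivation) probed in human Nav1.7-transfected 293 cells by automated patch clamp, test pulse −10 mV for 20 msec.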

[3] = second part of table, read-out: Nav1.7 IWQ IC50 IP
[4] = first part of table, read-out: Nav 1.7 IWQ IC50

T1 sequence (Q15858 whole entry): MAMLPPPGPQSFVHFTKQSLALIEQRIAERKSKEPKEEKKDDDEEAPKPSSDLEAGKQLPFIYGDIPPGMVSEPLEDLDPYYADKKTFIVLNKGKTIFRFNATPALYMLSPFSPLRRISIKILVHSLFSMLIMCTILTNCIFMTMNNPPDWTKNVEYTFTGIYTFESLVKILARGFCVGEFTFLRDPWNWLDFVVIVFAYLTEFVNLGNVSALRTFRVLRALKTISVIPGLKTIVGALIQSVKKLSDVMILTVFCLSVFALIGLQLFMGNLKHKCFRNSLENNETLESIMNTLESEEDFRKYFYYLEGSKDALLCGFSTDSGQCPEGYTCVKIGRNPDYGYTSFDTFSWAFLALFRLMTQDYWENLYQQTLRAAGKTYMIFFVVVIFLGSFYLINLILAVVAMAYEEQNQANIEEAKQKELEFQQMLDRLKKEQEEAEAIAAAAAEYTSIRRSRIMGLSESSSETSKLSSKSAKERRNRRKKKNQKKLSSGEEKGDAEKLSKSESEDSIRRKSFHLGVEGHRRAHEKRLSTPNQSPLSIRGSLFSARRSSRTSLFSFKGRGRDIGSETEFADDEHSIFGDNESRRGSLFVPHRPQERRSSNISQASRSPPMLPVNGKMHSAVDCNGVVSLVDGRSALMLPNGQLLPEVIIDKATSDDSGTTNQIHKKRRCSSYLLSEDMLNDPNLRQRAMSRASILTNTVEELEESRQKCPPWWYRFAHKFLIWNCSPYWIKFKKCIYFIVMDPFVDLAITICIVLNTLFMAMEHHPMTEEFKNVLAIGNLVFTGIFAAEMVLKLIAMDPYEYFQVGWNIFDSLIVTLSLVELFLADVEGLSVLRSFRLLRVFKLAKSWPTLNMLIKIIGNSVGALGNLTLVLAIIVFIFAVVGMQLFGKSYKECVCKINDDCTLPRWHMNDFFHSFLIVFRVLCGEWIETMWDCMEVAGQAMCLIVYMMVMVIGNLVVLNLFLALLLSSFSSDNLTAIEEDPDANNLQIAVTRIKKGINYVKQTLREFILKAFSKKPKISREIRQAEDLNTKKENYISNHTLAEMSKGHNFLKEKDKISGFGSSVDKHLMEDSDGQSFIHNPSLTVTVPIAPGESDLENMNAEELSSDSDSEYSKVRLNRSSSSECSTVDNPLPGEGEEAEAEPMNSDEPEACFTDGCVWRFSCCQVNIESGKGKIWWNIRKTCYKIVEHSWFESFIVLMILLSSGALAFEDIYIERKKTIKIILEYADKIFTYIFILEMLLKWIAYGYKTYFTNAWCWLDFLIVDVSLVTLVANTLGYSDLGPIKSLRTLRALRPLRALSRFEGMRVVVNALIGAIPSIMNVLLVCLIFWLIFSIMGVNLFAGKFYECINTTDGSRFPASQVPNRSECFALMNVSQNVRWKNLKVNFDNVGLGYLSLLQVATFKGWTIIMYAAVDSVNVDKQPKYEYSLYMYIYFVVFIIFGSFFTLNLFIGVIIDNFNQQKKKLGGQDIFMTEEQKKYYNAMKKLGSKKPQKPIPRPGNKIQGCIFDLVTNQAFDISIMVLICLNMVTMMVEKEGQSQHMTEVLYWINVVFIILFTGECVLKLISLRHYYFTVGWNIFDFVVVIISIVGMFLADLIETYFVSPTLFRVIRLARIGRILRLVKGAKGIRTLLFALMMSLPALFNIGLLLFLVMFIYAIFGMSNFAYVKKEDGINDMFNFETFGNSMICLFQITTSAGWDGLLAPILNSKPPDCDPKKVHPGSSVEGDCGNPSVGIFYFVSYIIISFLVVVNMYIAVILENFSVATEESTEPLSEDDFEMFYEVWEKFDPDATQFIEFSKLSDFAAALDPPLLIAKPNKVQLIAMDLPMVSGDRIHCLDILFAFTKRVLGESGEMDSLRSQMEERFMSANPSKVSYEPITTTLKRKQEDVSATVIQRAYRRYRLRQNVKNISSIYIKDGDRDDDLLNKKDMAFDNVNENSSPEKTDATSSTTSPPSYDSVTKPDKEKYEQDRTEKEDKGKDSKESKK

Structure (SMILES) | IC50 (Nav 1.7 [1]; [3]) | IC50 (Nav 1.7 [2]) | further results
O=S(=O)(Nc1nccs1)c1ccc2c([C@H]3CCCN3C3CCOCC3)cccc2c1 [Example 104, (R)-5-(1-(TETRAHYDRO-2H-PYRAN-4-YL)PYRROLIDIN-2-YL)-N-(THIAZOL-2-YL)NAPHTHALENE-2-SULFONAMIDE COMPOUND WITH DIETHYLAMINE (1:1)] | 80 nM | 1990 nM | 
COc1cc(Cl)ccc1-c1ncc(F)c2cc(S(=O)(=O)Nc3ccncn3)ccc12 [Example 217, 1-(4-CHLORO-2-METHOXYPHENYL)-4-FLUORO-N-(PYRIMIDIN-4-YL)ISOQUINOLINE-6-SULFONAMIDE] | 40 nM | 692 nM | 
COc1cc(Cl)c(Cl)cc1-c1nccc2cc(S(=O)(=O)Nc3ccncn3)ccc12 [Example 161, 1-(4,5-DICHLORO-2-METHOXYPHENYL)-N-(PYRIMIDIN-4-YL)ISOQUINOLINE-6-SULFONAMIDE] | 20 nM | 393 nM | 
O=S(=O)(Nc1ccncn1)c1ccc2c(OCc3ncoc3-c3ccccc3)nccc2c1 [Example 130, 1-((5-PHENYLOXAZOL-4-YL)METHOXY)-N-(PYRIMIDIN-4-YL)ISOQUINOLINE-6-SULFONAMIDE] | 500 nM | 4510 nM | 
COC(=N)c1cc(C(F)(F)F)ccc1-c1nccc2cc(S(=O)(=O)Nc3nccs3)ccc12 [Example 226, METHYL 2-(6-(N-(THIAZOL-2-YL)SULFAMOYL)ISOQUINOLIN-1-YL)-5-(TRIFLUOROMETHYL)BENZIMIDATE] | 90 nM | 600 nM | 
COc1cc(C(F)(F)F)ccc1-c1nccc2cc(S(=O)(=O)Nc3nccs3)cnc12 [Example 291, 8-(2-METHOXY-4-(TRIFLUOROMETHYL)PHENYL)-N-(THIAZOL-2-YL)-1,7-NAPHTHYRIDINE-3-SULFONAMIDE] | 160 nM | 2530 nM | 
O=S(=O)(Nc1ncns1)c1ccc2c(N3CCCC3c3ccncc3)cccc2c1 (stereo not shown) [Example 88] | 20 nM | 238 nM | 
Cn1c(-c2cccc3cc(S(=O)(=O)Nc4ccncn4)ccc23)cc2cc(F)ccc21 [Example 106] | 1600 nM | 3840 nM | 
COc1cc(C(F)(F)F)ccc1-c1nc(Cl)cc2cc(S(=O)(=O)Nc3nccs3)ccc12 [Example 219, 3-CHLORO-1-(2-METHOXY-4-(TRIFLUOROMETHYL)PHENYL)-N-(THIAZOL-2-YL)ISOQUINOLINE-6-SULFONAMIDE] | 170 nM | 796 nM | 
O=S(=O)(Nc1nccs1)c1ccc2c([C@@H]3CCCN3C3CCOCC3)cccc2c1 [Example 103, (S)-5-(1-(TETRAHYDRO-2H-PYRAN-4-YL)PYRROLIDIN-2-YL)-N-(THIAZOL-2-YL)NAPHTHALENE-2-SULFONAMIDE COMPOUND WITH DIETHYLAMINE (1:1)] | 1580 nM | 14500 nM | 
COc1cc(C(F)(F)F)ccc1-c1nc(N(C)C)cc2cc(S(=O)(=O)Nc3nccs3)ccc12 [Example 223, 3-(DIMETHYLAMINO)-1-(2-METHOXY-4-(TRIFLUOROMETHYL)PHENYL)-N-(THIAZOL-2-YL)ISOQUINOLINE-6-SULFONAMIDE] | 1100 nM | 6520 nM | 
Cc1cc2cnn(C)c2cc1-c1nccc2cc(S(=O)(=O)Nc3ccncn3)ccc12 [Example 165] | 5430 nM | > 30000 nM | 
COc1cc(C(F)(F)F)ccc1-c1nccc2cc(S(=O)(=O)Nc3ncncc3F)ccc12 [Example 183, N-(5-FLUOROPYRIMIDIN-4-YL)-1-(2-METHOXY-4-(TRIFLUOROMETHYL)PHENYL)ISOQUINOLINE-6-SULFONAMIDE] | 670 nM | 5870 nM | 
COc1cc(C(F)(F)F)ccc1-c1ncnc2cc(S(=O)(=O)Nc3ncc(F)s3)ccc12 [Example 263, N-(5-FLUOROTHIAZOL-2-YL)-4-(2-METHOXY-4-(TRIFLUOROMETHYL)PHENYL)QUINAZOLINE-7-SULFONAMIDE] | 10 nM | 280 nM | 
CCC1CN(c2cccc3cc(S(=O)(=O)Nc4ncns4)ccc23)CCO1 (stereo not shown) [Example 18] |  |  | IC50 (Nav 1.7 [1]; [4]): 710 nM
COc1nccc(NS(=O)(=O)c2ccc3c(-c4ccc(C(F)(F)F)cc4OC)nccc3c2)n1 [Example 313, 1-(2-METHOXY-4-(TRIFLUOROMETHYL)PHENYL)-N-(2-METHOXYPYRIMIDIN-4-YL)ISOQUINOLINE-6-SULFONAMIDE] | > 10000 nM |  | Nav1.7 Single Point Data IWQ (at […]) (%) (Nav 1.7 [1]): 39%
Cc1nsc(NS(=O)(=O)c2ccc3c(-c4ccc(Cl)cc4C)nccc3c2)n1 [Example 356] |  |  | Nav1.7 Single Point Data IWQ (at […]) (%) (Nav 1.7 [1]): 27%
Cc1c(-c2nccc3cc(S(=O)(=O)Nc4ccncn4)ccc23)ccc2c1cnn2C [Example 307] | > 10000 nM |  | Nav1.7 Single Point Data IWQ (at […]) (%) (Nav 1.7 [1]): 40%
COc1cnccc1-c1nccc2cc(S(=O)(=O)Nc3ccncn3)ccc12 [Example 169, 1-(3-METHOXYPYRIDIN-4-YL)-N-(PYRIMIDIN-4-YL)ISOQUINOLINE-6-SULFONAMIDE] | 5170 nM |  | 
COc1cc(Cl)ccc1-c1cccc2cc(S(=O)(=O)Nc3cc(C)on3)ccc12 [Example 44] |  |  | inhibition at […] (Nav 1.7 [1]): 22.1%
COc1ncc(F)cc1-c1nccc2cc(S(=O)(=O)Nc3ccncn3)ccc12 [Example 166, 1-(5-FLUORO-2-METHOXYPYRIDIN-3-YL)-N-(PYRIMIDIN-4-YL)ISOQUINOLINE-6-SULFONAMIDE] | 1390 nM |  | 

Structure (SMILES) | IC50 (Nav 1.7 [1]; [3]) | IC50 (Nav 1.7 [2]) | further results
CC1CN(c2cccc(F)c2)CCN1c1nccc2cc(S(=O)(=O)Nc3ccncn3)ccc12 (stereo not shown) [Example 403, 1-(4-(3-FLUOROPHENYL)-2-METHYLPIPERAZIN-1-YL)-N-(PYRIMIDIN-4-YL)ISOQUINOLINE-6-SULFONAMIDE] |  |  | Nav1.7 Single Point Data IWQ (at […]) (%) (Nav 1.7 [1]): 33.5%
CC(C)c1ccc2[nH]ncc2c1-c1nccc2cc(S(=O)(=O)Nc3ccncn3)ccc12 [Example 430, 1-(5-ISOPROPYL-1H-INDAZOL-4-YL)-N-(PYRIMIDIN-4-YL)ISOQUINOLINE-6-SULFONAMIDE] |  |  | Nav1.7 Single Point Data IWQ (at […]) (%) (Nav 1.7 [1]): 35.4%
COc1cnccc1NS(=O)(=O)c1ccc2c(-c3ccc(C(F)(F)F)cc3Cl)nccc2c1 [Example 52, 1-(2-CHLORO-4-(TRIFLUOROMETHYL)PHENYL)-N-(3-METHOXYPYRIDIN-4-YL)ISOQUINOLINE-6-SULFONAMIDE] |  |  | inhibition at […] (Nav 1.7 [1]): 16%
O=S(=O)(Nc1ccncn1)c1ccc2c(OCCn3ccnn3)nccc2c1 [Example 296, 1-(2-(1H-1,2,3-TRIAZOL-1-YL)ETHOXY)-N-(PYRIMIDIN-4-YL)ISOQUINOLINE-6-SULFONAMIDE] | > 10000 nM |  | Nav1.7 Single Point Data IWQ (at […]) (%) (Nav 1.7 [1]): 23%
O=S(=O)(Nc1ncns1)c1ccc2c(-c3ccc(Cl)cc3C(F)(F)F)nccc2c1 [Example 63, 1-(4-CHLORO-2-(TRIFLUOROMETHYL)PHENYL)-N-(1,2,4-THIADIAZOL-5-YL)ISOQUINOLINE-6-SULFONAMIDE] |  |  | IC50 (Nav 1.7 [1]; [4]): 330 nM
O=S(=O)(Nc1nccs1)c1ccc2c(N3CCCC3c3ccccc3)cccc2c1 (stereo not shown) [Example 80] |  |  | IC50 (Nav 1.7 [1]; [4]): 1200 nM
O=S(=O)(Nc1ncns1)c1ccc2c(N3CCOC(c4ccccc4)C3)cccc2c1 (racemic) [Example 14 (mixture of isomers)] |  |  | IC50 (Nav 1.7 [1]; [4]): 300 nM
Cn1ncnc1COc1nccc2cc(S(=O)(=O)Nc3ccncn3)ccc12 [Example 295, 1-((1-METHYL-1H-1,2,4-TRIAZOL-5-YL)METHOXY)-N-(PYRIMIDIN-4-YL)ISOQUINOLINE-6-SULFONAMIDE] | > 10000 nM |  | Nav1.7 Single Point Data IWQ (at […]) (%) (Nav 1.7 [1]): 36%
COc1cc(C(F)(F)F)ccc1-c1nccc2cc(S(=O)(=O)Nc3ccncn3)ccc12 [Example 67, 1-(2-METHOXY-4-(TRIFLUOROMETHYL)PHENYL)-N-(PYRIMIDIN-4-YL)ISOQUINOLINE-6-SULFONAMIDE] |  |  | IC50 (Nav 1.7 [1]; [4]): 80 nM
O=S(=O)(Nc1ncns1)c1ccc2c(N3CCOC(c4ccccc4)C3)cccc2c1 (single isomer, unassigned) [14 (isomer 1), 5-(2-phenylmorpholino)-N-(1,2,4-thiadiazol-5-yl)naphthalene-2-sulfonamide] |  |  | IC50 (Nav 1.7 [1]; [4]): 520 nM
O=S(=O)(Nc1ccncn1)c1ccc2c(OCCCc3cn[nH]c3C(F)(F)F)nccc2c1 [Example 302, N-(PYRIMIDIN-4-YL)-1-(3-(5-(TRIFLUOROMETHYL)-1H-PYRAZOL-4-YL)PROPOXY)ISOQUINOLINE-6-SULFONAMIDE] | > 10000 nM |  | Nav1.7 Single Point Data IWQ (at […]) (%) (Nav 1.7 [1]): 20%
Cn1ccc2cccc(-c3nccc4cc(S(=O)(=O)Nc5ccncn5)ccc34)c21 [Example 164, 1-(1-METHYL-1H-INDOL-7-YL)-N-(PYRIMIDIN-4-YL)ISOQUINOLINE-6-SULFONAMIDE] | 6610 nM |  | 
O=S(=O)(Nc1ccncn1)c1ccc2c(N3CCCC(c4cccc(F)c4)C3)nccc2c1 (stereo not shown) [Example 402, 1-(3-(3-FLUOROPHENYL)PIPERIDIN-1-YL)-N-(PYRIMIDIN-4-YL)ISOQUINOLINE-6-SULFONAMIDE] |  |  | Nav1.7 Single Point Data IWQ (at […]) (%) (Nav 1.7 [1]): 36.4%
CC(C)(C#N)c1ccccc1-c1nccc2cc(S(=O)(=O)Nc3nccs3)ccc12 [Example 385, 1-(2-(2-CYANOPROPAN-2-YL)PHENYL)-N-(THIAZOL-2-YL)ISOQUINOLINE-6-SULFONAMIDE] |  |  | Nav1.7 Single Point Data IWQ (at […]) (%) (Nav 1.7 [1]): 25.3%
O=S(=O)(Nc1nccs1)c1ccc2c(-c3ccc(C(F)(F)F)cc3-c3ccnn3C3CNC3)cccc2c1 [Example 81] |  |  | IC50 (Nav 1.7 [1]; [4]): 40 nM
O=S(=O)(Nc1nccs1)c1ccc2c(-c3ccc(C(F)(F)F)cc3Cl)cccc2c1 [Example 79] |  |  | IC50 (Nav 1.7 [1]; [4]): 900 nM
Cc1cc(C#N)ccc1-c1nccc2cc(S(=O)(=O)Nc3ccncn3)ccc12 [Example 159] | 4830 nM |  | 
COc1cc(Cl)ccc1-c1cccc2cc(S(=O)(=O)Nc3ccn(CCN(C)C)n3)ccc12 [Example 43] |  |  | IC50 (Nav 1.7 [1]; [4]): 4890 nM
O=S(=O)(Nc1ccncn1)c1ccc2c(OCc3cccnc3N3CCOCC3)nccc2c1 [Example 298, 1-((2-MORPHOLINOPYRIDIN-3-YL)METHOXY)-N-(PYRIMIDIN-4-YL)ISOQUINOLINE-6-SULFONAMIDE] | > 10000 nM |  | Nav1.7 Single Point Data IWQ (at […]) (%) (Nav 1.7 [1]): 29%
CC1(c2ccccc2)CN(c2cccc3cc(S(=O)(=O)Nc4ncns4)ccc23)CCO1 (stereo not shown) [Example 15] |  |  | IC50 (Nav 1.7 [1]; [4]): 1290 nM
